Experimental data taken from patent publication US20240391862A1, “(1,4,5-TRISUBSTITUTED-1H-PYRAZOL-3-YL)OXY-2-ALKOXY ALKYL ACIDS AND THEIR DERIVATIVES, THEIR SALTS AND THEIR USE AS HERBICIDAL AGENTS” (Bayer AKtiengesellschaft, priority 2021, published 2024).

Tests used:
[1] = test system: VERPE; test: Post-emergence herbicidal effect, greenhouse pot test; type: in vivo, Veronica persica
How it was run: (§1)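 Greenhouse pot plants in sandy loam receive a one-leaf-stage spray at 20 to 320 g/ha. Activity is assessed visually around 3 weeks afterwards on a 0–100% scale, where 100% means the plants have died.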

[2] = test system: VIOTR; test: as above; type: in vivo, Viola tricolor
How it was run: as §1

[3] = test system: AVEFA; test: as above; type: in vivo, Avena fatua; conditions: 320 g/ha, visual rating about 3 weeks after treatment; for pest or weed control at 320 g/ha: Avena fatua, 504 h, read-out: Post-emergence effect against AVEFA
How it was run: as §1

[4] = test system: POLCO; test: as above; type: in vivo, Fallopia convolvulus; conditions: Fallopia convolvulus, 504 h, read-out: Post-emergence effect against POLCO in %
How it was run: as §1

[5] = test system: ABUTH; test: as above; type: in vivo, Abutilon theophrasti; conditions: visual rating about 3 weeks after treatment
How it was run: as §1

[6] = test system: LOLRI; test: as above; type: in vivo, Lolium rigidum; conditions: 320 g/ha; for pest or weed control at 320 g/ha: Lolium rigidum, 504 h, read-out: Post-emergence effect against LOLRI in %
How it was run: as §1

[7] = test system: ECHCG; test: as above; type: in vivo, Echinochloa crus-galli
How it was run: as §1

[8] = test system: ALOMY; test: as above; type: in vivo, Alopecurus myosuroides; conditions: Alopecurus myosuroides, 504 h, 320 g/ha, visual rating about 3 weeks after treatment, read-out: Post-emergence effect against ALOMY
How it was run: as §1

[9] = test system: PHBPU; test: as above; type: in vivo, Ipomoea purpurea
How it was run: as §1

[10] = test system: DIGSA; test: as above; type: in vivo, Digitaria sanguinalis; conditions: 320 g/ha, visual rating about 3 weeks after treatment
How it was run: as §1

[11] = test system: MATIN; test: as above; type: in vivo, Tripleurospermum inodorum
How it was run: as §1

[12] = test system: SETVI; test: as above; type: in vivo, Setaria viridis
How it was run: as §1

[13] = test system: TRZAS; test: Post-emergence herbicidal effect and crop plant compatibility, greenhouse pot test; type: in vivo, Triticum aestivum; conditions: for percent crop injury (phytotoxicity) to wheat, post-emergence at 20 g/ha: Triticum aestivum, 504 h, read-out: Post-emergence effect at 20 g/ha against TRZAS in %
Text: • ALOMY: Alopecurus myosuroides SETVI: Setaria viridis • AVEFA: Avena fatua POLCO: Fallopia convolvulus • AMARE: Amaranthus retroflexus ECHCG: Echinochloa crus-galli • LOLRJ: Lolium rigidum STEME: Stellaria media • VERPE: Veronica persica MATIN: Tripleurospermum inodorum • DIGSA: Digitaria sanguinalis ABUTH: Abutylon threophrasti • TRZAS: Triticum aestivum VIOTR: Viola tricolor • BRSNW: Brassica napus ZEAMX: Zea mays • PHBPU: Ipomoea purpurea GLXMA: Glycine max • ORYSA: Oryza sativa HORMU: Hordeum murinum
Seeds of monocotyledonous and dicotyledonous weeds and crop plants are placed in sandy loam in plastic or organic planting pots, covered with soil and cultivated in a greenhouse under controlled growth conditions. 2 to 3 weeks after sowing, the trial plants are treated at the one-leaf stage. The compounds of the invention, formulated in the form of wettable powders (WP) or as emulsion concentrates (EC), are then sprayed onto the green parts of the plants as aqueous suspension or emulsion with addition of 0.5% additive at a water application rate of 600 l/ha (converted). After the test plants have been kept in the greenhouse under optimum growth conditions for about 3 weeks, the activity of the preparations is rated visually in comparison to untreated controls. For example, 100% activity=the plants have died, 0% activity=like control plants.
Tables 20a to 38c below show the effects/crop compatibilities of selected compounds of the general formula (I) on various harmful plants at an application rate corresponding to 20 to 320 g/ha, which were obtained by the trial procedure specified above.

[14] = test system: AMARE; test: Post-emergence herbicidal effect, greenhouse pot test; type: in vivo, Amaranthus retroflexus; conditions: visual rating about 3 weeks after treatment
How it was run: as §1

[15] = test system: ZEAMX; test: Post-emergence herbicidal effect and crop plant compatibility, greenhouse pot test; type: in vivo, Zea mays; conditions: Zea mays, 504 h, 20 g/ha, one-leaf stage, rated visually after about 3 weeks vs untreated controls, read-out: Post-emergence effect at 20 g/ha against ZEAMX in %
How it was run: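 Visual % activity scored roughly 3 weeks post-spray against untreated plants, where 100% means death and 0% equals control. Plants were treated at the one-leaf stage, 2 to 3 weeks after sowing in sandy loam, at 20 to 320 g/ha.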

[16] = Veronica persica, 504 h, 320 g/ha, read-out: Post-emergence effect against VERPE in %
[17] = Viola tricolor, 504 h, read-out: Post-emergence effect against VIOTR in %
[18] = Viola tricolor, 504 h, 320 g/ha, read-out: Post-emergence effect against VIOTR in %
[19] = Abutilon theophrasti, 504 h, 320 g/ha, read-out: Post-emergence effect against ABUTH
[20] = Echinochloa crus-galli, 504 h, 320 g/ha, read-out: Post-emergence effect against ECHCG in %
[21] = Ipomoea purpurea, 504 h, 80 g/ha, read-out: Post-emergence effect against PHBPU in %
[22] = Ipomoea purpurea, 504 h, 320 g/ha, read-out: Post-emergence effect against PHBPU in %
[23] = Setaria viridis, 504 h, 320 g/ha, read-out: Post-emergence effect against SETVI in %
[24] = 20 g/ha, one-leaf stage, rated visually after about 3 weeks vs untreated controls

CCOC(=O)C(OC)Oc1nn(-c2cc(F)ccc2F)c(-c2cncc(F)c2)c1Br (stereo not drawn) [Example I-33]
20%: percent crop injury (phytotoxicity) to wheat, post-emergence at 20 g/ha [13, 24]
90%: pest or weed control at 320 g/ha [1, 16] | pest or weed control at 320 g/ha [2, 18] | pest or weed control at 320 g/ha [3] | pest or weed control at 80 g/ha ([5]; Abutilon theophrasti, 504 h, 80 g/ha, read-out: Post-emergence effect against ABUTH) | pest or weed control at 320 g/ha [5, 19] | pest or weed control at 320 g/ha [6] | pest or weed control at 320 g/ha [7, 20] | pest or weed control at 320 g/ha [8] | pest or weed control at 80 g/ha [9, 21] | pest or weed control at 320 g/ha [9, 22] | pest or weed control at 320 g/ha ([11]; Tripleurospermum inodorum, 504 h, 320 g/ha, read-out: Post-emergence effect against MATIN in %) | pest or weed control at 80 g/ha ([12]; Setaria viridis, 504 h, 80 g/ha, read-out: Post-emergence effect against SETVI in %) | pest or weed control at 320 g/ha [12, 23]
80%: pest or weed control at 80 g/ha ([1]; Veronica persica, 504 h, 80 g/ha, read-out: Post-emergence effect against VERPE in %) | pest or weed control at 20 g/ha ([2]; Viola tricolor, 504 h, 20 g/ha, read-out: Post-emergence effect against VIOTR in %) | pest or weed control at 80 g/ha [2, 17] | pest or weed control at 320 g/ha [4] | pest or weed control at 80 g/ha ([7]; Echinochloa crus-galli, 504 h, 80 g/ha, read-out: Post-emergence effect against ECHCG in %) | pest or weed control at 20 g/ha ([9]; Ipomoea purpurea, 504 h, 20 g/ha, read-out: Post-emergence effect against PHBPU in %) | pest or weed control at 320 g/ha ([10]; Digitaria sanguinalis, 504 h, read-out: Post-emergence effect against DIGSA) | pest or weed control at 80 g/ha ([11]; Tripleurospermum inodorum, 504 h, 80 g/ha, read-out: Post-emergence effect against MATIN in %)

COC(=O)C(OC)Oc1nn(-c2ncccc2F)c(-c2ccc(F)nc2)c1I (stereo not drawn) [Example I-39]
80%: pest or weed control at 80 g/ha [2, 17] | pest or weed control at 320 g/ha ([14]; Amaranthus retroflexus, 504 h, 320 g/ha, read-out: Post-emergence effect against AMARE)
90%: pest or weed control at 320 g/ha [1, 16] | pest or weed control at 320 g/ha [2, 18] | pest or weed control at 80 g/ha ([4]; 80 g/ha) | pest or weed control at 320 g/ha [4] | pest or weed control at 320 g/ha [5, 19] | pest or weed control at 320 g/ha [7, 20] | pest or weed control at 80 g/ha [9, 21] | pest or weed control at 320 g/ha [9, 22] | pest or weed control at 320 g/ha [12, 23]
100%: pest or weed control at 320 g/ha [3] | pest or weed control at 320 g/ha [6] | pest or weed control at 320 g/ha [8]
20%: plant injury at 20 g/ha [15]
0%: percent crop injury (phytotoxicity) to wheat, post-emergence at 20 g/ha [13, 24]

COC(=O)C(OC)Oc1nn(-c2cccc(C)c2F)c(-c2ccc(F)nc2)c1Br (stereo not drawn) [Example I-114]
100%: Post-emergence effect against ECHCG in % ([7]; 320 g/ha)
20%: Post-emergence effect against TRZAS ([13]; 80 g/ha, visual rating about 3 weeks after treatment, crop plant)
80%: Post-emergence effect against VERPE in % ([1]; 20 g/ha) | Post-emergence effect against VERPE in % ([1]; 80 g/ha) | Post-emergence effect against AMARE ([14]; 20 g/ha) | Post-emergence effect against AMARE ([14]; 80 g/ha) | Post-emergence effect against AVEFA [3] | Post-emergence effect against ABUTH ([5]; 80 g/ha) | Post-emergence effect against LOLRI in % [6] | Post-emergence effect against ECHCG ([7]; 20 g/ha, visual rating about 3 weeks after treatment) | Post-emergence effect against PHBPU in % ([9]; 80 g/ha) | Post-emergence effect against DIGSA [10] | Post-emergence effect against MATIN in % ([11]; 80 g/ha)
90%: Post-emergence effect against VERPE in % ([1]; 320 g/ha) | Post-emergence effect against VIOTR in % ([2]; 320 g/ha) | Post-emergence effect against AMARE ([14]; 320 g/ha) | Post-emergence effect against ABUTH ([5]; 320 g/ha) | Post-emergence effect against ECHCG in % ([7]; 80 g/ha) | Post-emergence effect against PHBPU in % ([9]; 320 g/ha) | Post-emergence effect against MATIN in % ([11]; 320 g/ha) | Post-emergence effect against SETVI in % ([12]; 320 g/ha)
0%: Post-emergence effect at 20 g/ha against TRZAS in % [13, 24]
